Read-outs that look alike come from different tables or passages of the source.
Tests used:
[1] = Bioavailability and pharmacokinetics of sodium cromoglycate from the literature; type: in vivo, human; conditions: oral, maximum administered dose of 2800 mg in a 70 kg person
Experimental: Urinary levels over time are probably a better measure of bioavailability.
Thus the maximum administered topical daily dose is expected to be 800 mg.

[2] = cited from earlier work
[3] = radioimmunoassay after applying an aqueous solution to skin; cited from earlier work
[4] = cited from earlier work; remark: listed apart in the source
[5] = tested on: antigen induced wheal and flare reaction in the skin; conditions: cited from earlier work

absorbed dose [1]: 28 mg
SMILES: O=C([O-])c1cc(=O)c2c(OCC(O)COc3cccc4oc(C(=O)[O-])cc(=O)c34)cccc2o1.[Na+].[Na+] [sodium cromoglycate, disodium 5,5′-[(2-hydroxytrimethylene)dioxy]bis-[4-oxo-4H-1-benzopyran-2-carboxylate]]
metabolism ([2]; in vivo): not metabolised | removal from the blood ([2]; in vivo): rapidly removed | bioavailability ([2]; oral, food allergy): 1% | sodium cromoglycate in the blood [3]: unable to detect | main adverse effects ([4]; clinical practice, generally transient): headache, dizziness, local irritation of the target organ and an unpleasant taste in the mouth | adverse effects ([4]; eye drops): burning and stinging | adverse effects ([4]; intra-nasal administration): epistaxis | adverse effects ([4]; oral administration): nausea, skin rash and joint pain | dependence of effect on pretreatment ([5]; 3 days pretreatment versus single dose immediately preceding skin prick testing): significant effect is observed only after pretreatment | effect on antigen induced wheal and flare reaction ([5]; topical, human subjects): inhibits
